Source: US20040259942A1, “Modulation of stat activity” (priority 2001, published 2004)
“Also recorded” adds a separate entry of the source.

Assays:
[1] = tested on: autocrine factor release from BR293 cells; experiment: Autocrine factor release: CM from pre-treated serum-stimulated cells tested for STAT3 phosphorylation; type: cell-based, human; details: 100 μM (FIG. 18d)
Protocol: OdDHL blocks the autocrine release of mitogens from BC cells (a) Equal numbers of BR293 cells were cultured in MEM alone, serum-free MEM conditioned by serum-stimulated BR293 cells for 2 hours, or the same supplemented with 5% FCS, as indicated. After 24 hours [^3H]-thymidine was added to the medium. After a further 18 hours, cells were harvested and analysed for incorporation of ^3H. Error bars denote SD (n=4). (b) BR293 cells were serum-starved (lane 1) or starved and stimulated with 10% FCS for 2 hours directly (lane 2) or after pretreatment with α-amanitin (1004/ml) for 2.5 hours (lane 3) or actinomycin D ([…]) for 10 min (lane 4). […] (c) BR293 cells were serum-starved (lane 1) or starved and stimulated with 10% FCS alone for 2 hours (lane 2), with serum-free CM alone for 15 min (lane 5) or in the presence of increasing 100 μM AG490 (lanes 3 and 6) or 100 μM OdDHL (lanes 4 and 7). Cell lysates were prepared and analysed by Western blotting as described in the legend to FIG. 1a. (d) BR293 cells were stimulated with 10% FCS in the presence of 100 μM OHHL (lane 1) or OdDHL (lane 2). After 2 hours the cells were washed and incubated for a further 2 hours in serum-free MEM. […] Lysates were prepared from all the cells and analysed by Western blotting as described in the legend to FIG. 1a.

p38^MAPK = experiment: p38 MAPK phosphorylation in anisomycin-treated cells (Western blotting); type: cell-based, human; details: BR293 cells treated with anisomycin
Protocol: ERKs are unaffected by OdDHL (a) BR293 cells were serum-starved (lane 1) or starved and stimulated with TPA for 30 min alone (lane 2) or in the presence of increasing concentrations of OdDHL (lanes 3-6) or 100 μM OHHL (lane 7). Cell lysates were prepared and analysed by Western blotting for ERK phosphorylation with an antibody specific for phospho-ERK½ (upper panel) and for ERK content with an antibody against ERKs (lower panel). (b) BR293 cells were serum-starved (lane 1) or starved and stimulated with Anisomycin for 30 min alone (lane 2) or in the presence of increasing concentrations of OdDHL (lanes 3-6) or 100 μM OHHL (lane 7). Cell lysates were prepared and analysed by Western blotting for JNK/SAPK phosphorylation with an antibody specific for phospho-JNKs (upper panel) and for SAPK/JNK content with an antibody against JNKs (lower panel). (c) BR293 cells were treated as described in (b) and lysates were analysed by Western blotting for p38^MAPK phosphorylation with an antibody specific for phospho-p38 (upper panel) and for p38 content with an antibody against p38 (lower panel).

STAT3 = experiment: EGF-induced STAT3 phosphorylation (Western blotting, Y705); type: cell-based, human; details: MDA-MB-468 cells; co-treatment 100 μM
Protocol: EGF-R was immunoprecipitated from cell lysates and analysed by Western blotting tyrosine phosphorylation with an anti phosphotyrosine antibody (upper panel, top) and EGF-R content with an anti-EGF-R antibody (lower panel, top). Cell lysates were analysed in parallel for STAT3 phosphorylation with an antibody specific for STAT3 phosphorylated on Y705 (upper panel, bottom) and for STAT3 content with an antibody for STAT3 (lower panel, bottom). […] The inclusion of an anti-STAT3 antibody in duplicate binding reactions (even lanes) identifies STAT3-containing heterodimers (3:1), as indicated to the right of the panel. (c) COS-1 cells were transfected with an expression vector for STAT3, a STAT3-responsive luciferase reporter (SIE2-luc) and a control gene for β-galactosidase. […] After 6 hours cells were harvsted and reporter gene expression analysed. Results are normalised against β-galactosidase values and expressed as averages +/−SD (n=3).

ErbB1 = biological target: T1, ErbB1 (Homo sapiens, UniProt P00533); experiment: Tyrosine phosphorylation of ErbB1 (EGF-R): immunoprecipitation and anti-phosphotyrosine immunoblot; type: cell-based; details: MDA-MB-468 cells
T1 construct: Lysates were prepared, from which ErbB1 proteins were collected as immune complexes; endogenous in cells; host or cells: MDA-MB-468
Protocol: Immune complexes were then allowed to bind to protein A-Sepharose beads for 1 hour at 4° C. and collected by centrifugation. Immunoprecipitates were washed three times in 100 mM Tris-HC1 pH 7.5, 100 nM NaCl, 1 mM EDTA, 0.1 mM PMSF, 0.5% NP-40. Thereafter, samples were taken up in sodium dodecyl sulphate (SDS) loading buffer and boiled for 5 min.

JAK2 = biological target: T2, JAK2 (Homo sapiens, UniProt O60674); experiment: Serum-induced JAK2 tyrosine phosphorylation (immunoblot); type: cell-based; details: preliminary data, unpublished
T2 construct: endogenous in cells; host or cells: BR293
Protocol: For immunoprecipitation and immunoblotting experiments, cells were grown to confluence in 10 cm dishes and maintained in full medium or starved in serum-free medium overnight before the application of appropriate stimuli. Lysates were prepared in TBSN buffer (50 mM Tris-HCl pH7.5, 150 mM NaCl, 1 mM EDTA, 1% NP-40) supplemented with protease inhibitors (1 mM Na3 VO4, 10 mM Na4P2O7, 10 mM NaF, 5 mM EGTA, 10 mM Benzamidine, 0.2 mM PMSF and 1 μg/ml each of leupeptin, aprotinin, pepstatin). Lysates were cleared by centrifugation at 16,000×g for 10 minutes and used directly for immunoprecipitations or stored at −20° C. for further use.
Equal amounts of lysates were incubated with the appropriate antibody for 2 hours at 4° C.
Immune complexes were then allowed to bind to protein A-Sepharose beads for 1 hour at 4° C. and collected by centrifugation. Immunoprecipitates were washed three times in 100 mM Tris-HC1 pH 7.5, […], 1 mM EDTA, 0.1 mM PMSF, 0.5% NP-40. Thereafter, samples were taken up in sodium dodecyl sulphate (SDS) loading buffer and boiled for 5 min.
Samples were separated by electrophoresis through 6% polyacrylamide-SDS gels. Proteins were then transferred to polyvinylidene difluoride (PVDF) membranes with a semi-dry electroblotting apparatus. […]

T1 sequence (P00533 25-1210): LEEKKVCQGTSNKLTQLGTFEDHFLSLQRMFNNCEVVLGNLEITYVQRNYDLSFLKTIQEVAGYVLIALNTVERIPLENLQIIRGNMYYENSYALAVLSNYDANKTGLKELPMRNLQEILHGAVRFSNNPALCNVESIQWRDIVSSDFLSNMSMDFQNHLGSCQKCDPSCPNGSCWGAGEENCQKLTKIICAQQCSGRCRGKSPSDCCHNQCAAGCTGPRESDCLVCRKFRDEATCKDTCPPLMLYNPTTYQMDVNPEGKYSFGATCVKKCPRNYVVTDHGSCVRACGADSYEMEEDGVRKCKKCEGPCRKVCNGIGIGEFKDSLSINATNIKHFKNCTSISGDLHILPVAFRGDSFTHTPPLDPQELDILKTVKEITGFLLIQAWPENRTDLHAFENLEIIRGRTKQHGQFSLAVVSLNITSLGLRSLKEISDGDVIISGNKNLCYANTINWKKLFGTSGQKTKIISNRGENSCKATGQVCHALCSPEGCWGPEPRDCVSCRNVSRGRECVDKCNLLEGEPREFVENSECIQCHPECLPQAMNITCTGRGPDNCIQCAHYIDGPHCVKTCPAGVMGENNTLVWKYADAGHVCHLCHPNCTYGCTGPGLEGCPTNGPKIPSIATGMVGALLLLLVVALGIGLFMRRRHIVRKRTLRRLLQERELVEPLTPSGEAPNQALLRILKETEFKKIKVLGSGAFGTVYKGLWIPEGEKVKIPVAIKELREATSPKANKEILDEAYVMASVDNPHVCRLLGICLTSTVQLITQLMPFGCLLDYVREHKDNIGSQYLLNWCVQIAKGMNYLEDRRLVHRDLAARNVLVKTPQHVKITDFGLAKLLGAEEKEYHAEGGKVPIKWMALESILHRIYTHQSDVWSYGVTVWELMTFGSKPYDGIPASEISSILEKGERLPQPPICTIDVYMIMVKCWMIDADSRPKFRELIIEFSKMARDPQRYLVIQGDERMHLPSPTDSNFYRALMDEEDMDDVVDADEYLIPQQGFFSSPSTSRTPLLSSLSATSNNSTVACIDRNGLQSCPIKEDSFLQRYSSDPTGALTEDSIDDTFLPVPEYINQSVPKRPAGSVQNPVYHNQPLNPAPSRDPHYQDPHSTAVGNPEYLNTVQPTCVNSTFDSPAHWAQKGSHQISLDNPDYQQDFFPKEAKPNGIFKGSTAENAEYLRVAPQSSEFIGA
T2 sequence (O60674 whole entry): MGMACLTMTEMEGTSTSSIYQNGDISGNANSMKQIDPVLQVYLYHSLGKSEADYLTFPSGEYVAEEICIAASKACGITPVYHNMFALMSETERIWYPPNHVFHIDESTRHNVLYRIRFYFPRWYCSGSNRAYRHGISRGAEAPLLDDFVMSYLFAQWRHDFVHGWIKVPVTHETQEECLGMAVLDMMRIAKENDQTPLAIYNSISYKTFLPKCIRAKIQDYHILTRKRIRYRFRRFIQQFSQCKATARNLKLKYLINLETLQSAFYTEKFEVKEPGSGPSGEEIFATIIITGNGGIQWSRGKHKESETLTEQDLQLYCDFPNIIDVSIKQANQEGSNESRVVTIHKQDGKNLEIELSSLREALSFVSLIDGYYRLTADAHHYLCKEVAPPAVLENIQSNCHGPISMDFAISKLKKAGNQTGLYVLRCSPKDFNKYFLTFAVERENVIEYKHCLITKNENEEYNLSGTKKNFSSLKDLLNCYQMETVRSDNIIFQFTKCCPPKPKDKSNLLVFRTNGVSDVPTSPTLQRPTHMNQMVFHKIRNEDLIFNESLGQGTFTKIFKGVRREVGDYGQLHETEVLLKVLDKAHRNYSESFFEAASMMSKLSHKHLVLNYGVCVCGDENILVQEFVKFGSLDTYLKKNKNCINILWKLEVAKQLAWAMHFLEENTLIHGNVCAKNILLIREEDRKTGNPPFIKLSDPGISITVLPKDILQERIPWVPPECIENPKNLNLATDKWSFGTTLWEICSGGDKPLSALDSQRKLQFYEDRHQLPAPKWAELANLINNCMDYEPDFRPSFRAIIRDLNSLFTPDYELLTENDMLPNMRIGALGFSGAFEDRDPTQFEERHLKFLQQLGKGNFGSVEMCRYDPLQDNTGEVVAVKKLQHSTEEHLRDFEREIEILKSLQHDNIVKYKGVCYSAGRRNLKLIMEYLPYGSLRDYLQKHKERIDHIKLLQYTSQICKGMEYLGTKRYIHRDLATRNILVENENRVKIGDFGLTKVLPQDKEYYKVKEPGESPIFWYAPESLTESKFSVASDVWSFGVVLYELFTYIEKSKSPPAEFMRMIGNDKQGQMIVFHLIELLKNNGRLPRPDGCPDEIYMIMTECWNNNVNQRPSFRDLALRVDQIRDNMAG

CCCCCCCCCC(=O)CC(=O)N[C@H]1CCOC1=O [OdDHL, N-(3-oxo-dodecanoyl)-L-homoserine lactone]
STAT3 phosphorylation induced by CM from serum-stimulated cells pre-treated with the compound [1]: unable to stimulate STAT3 phosphorylation; also recorded: failed to induce STAT3 phosphorylation
p38^MAPK phosphorylation (p38^MAPK): modest but reproducible inhibition
STAT3 phosphorylation in response to EGF (STAT3): augmented
receptor tyrosine phosphorylation in response to EGF stimulation (ErbB1; 100 μM and even at lower concentrations (101M as printed)): potentiated receptor tyrosine phosphorylation in response to EGF stimulation several fold
tyrosine phosphorylation of the EGF-R in unstimulated cells (ErbB1; OdDHL alone at 100 μM): caused an increase in detectable tyrosine phosphorylation of the EGF-R
JAK2 phosphorylation in serum-stimulated cells (JAK2): does not interfere with JAK2 phosphorylation
